Tests used:
[1] = tested on: HUVECs (human umbilical vein endothelial cells); assay: HUVEC migration (scratch) assay; format: cell-based; conditions: 16 h, read-out: Inhibition of migration (EC50)
Procedure: To verify that novel compounds have anti-vascularisation properties, we analyzed their influence on the proliferation and migration of HUVECs. HUVECs (human umbilical vein endothelial cells) were purchased from Promocell (Heidelberg, Germany) and cultured in endothelial cell growth medium (ECGM, Promocell, Heidelberg, Germany) containing 10% FCS (Biochrom, Berlin, Germany). Experiments were performed using cells at passage 3.
For migration assay, confluent HUVECs were scratched with a pipette tip and immediately treated with either starvation medium M199 (serum-free, negative control; PAN Biotech) or full endothelial cell growth medium (positive control). After 16 h, cells were fixed with 3% formaldehyde and images were taken using the TILLvisON system (Lochham, Germany) connected to an Axiovert 200 microscope (Zeiss, Germany). Evaluation of pictures was made by S.CO LifeScience (Garching, Germany). Migration was quantified as the ratio of the area covered with cells and the area of the cell free wound.

Mcl-1 = assay: Immunoblotting of apoptotic markers in HCT116 cells: Mcl-1; format: cell-based; conditions: 24 hours, FIG. 4
Procedure: (§1) Effect of novel compounds on apoptosis was confirmed by immunoblotting analysis of selected apoptotic proteins. For immunoblotting, cell were harvested, washed three times with ice-cold PBS and lysed in a buffer (50 mM Tris, pH 7.4, 250 mM NaCl, 5 mM EDTA, 50 mM NaF, 1 mM Na3VO4, 1% Nonidet P40) containing mixture of protease and phosphatase inhibitors (Sigma-Aldrich). 20 μg of total proteins were separated by SDS-polyacrylamide gel electrophoresis (SDS-PAGE) and transferred onto nitrocellulose membranes. Membranes were blocked in 5% milk and 0.1% Tween 20 in PBS and probed overnight with specific antibodies. Specific antibodies were purchased from SigmaAldrich (anti a-tubulin, clone DM1A), Santa Cruz Biotechnology (anti-Mcl-1, clone S-19; anti-PARP, clone F-2; anti-Mdm-2, clone SMP14; anti-Bcl-2), DAKO Cytomation Cell Signaling (anti-PUMA) or were a generous gift from Dr. B. Vojtesek (anti-p53, clone DO-1). All primary antibodies were diluted in PBS containing 5% powdered milk; 0.1% Tween 20. Peroxidase conjugated rabbit anti-mouse immunoglobulin or porcine anti-rabbit immunoglobulin antisera (DAKO) were used as the secondary antibodies and visualised with ECL reagents (GE-Healthcare Life Sciences).

Mdm-2 = assay: Immunoblotting of apoptotic markers in HCT116 cells: Mdm-2; format: cell-based; conditions: 24 hours, FIG. 4
Procedure: as §1

[2] = tested on: G361 (malignant melanoma); assay: MTT cytotoxicity assay, solid cancer cell line G361; format: cell-based; conditions: Homo sapiens, G-361, 72 h, three days
In short: (§2)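 Each line grown in DMEM with FBS and L-glutamine; 4000-10000 cells/well allowed to settle ≥16 h, then given compound at 100 to 0.01 μM in triplicate for three days. MTT added, medium replaced with DMSO after five hours, absorbance read at 620 nm. Untreated cells served as reference; each assay repeated 3 times.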

CDK5/p35 = target: T1, CDK5/p35 (Homo sapiens, UniProt Q00535); assay: CDK5/p35 kinase inhibition (33P-ATP, histone H1); format: biochemical; conditions: 0.15 μM ATP
T1 construct: purchased ProQinase GmbH
Procedure: CDK2/Cyclin E kinase was produced in Sf9 insect cells via baculoviral infection and purified on a NiNTA column (Qiagen). […] CDK5/p35 was purchased from ProQinase GmbH.
(§3) The reactions were stopped by adding 5 μL of 3% aq H3PO4. Aliquots were spotted onto P-81 phosphocellulose (Whatman), washed 3× with 0.5% aq H3PO4 and finally air-dried.

CDK2/Cyclin E = target: T2, CDK2/Cyclin E (Homo sapiens, UniProt P24941); assay: CDK2/Cyclin E kinase inhibition (33P-ATP, histone H1); format: biochemical; conditions: 15 μM ATP
T2 construct: made in house; host or cells: Sf9 insect cells (baculovirus)
Procedure: CDK2/Cyclin E kinase was produced in Sf9 insect cells via baculoviral infection and purified on a NiNTA column (Qiagen). The kinase reactions were assayed with 1 mg/mL histone H1 in the presence of 15 μM ATP, 0.05 μCi [γ-^33P]ATP and of the test compound in a final volume of 10 μL, all in a reaction buffer (60 mM HEPES-NaOH, pH 7.5, 3 mM MgCl2, 3 mM MnCl2, 3 μM Na-orthovanadate, 1.2 mM DTT, 2.5 μg/50 μl PEG20.000). CDK5/p35 was purchased from ProQinase GmbH. The kinase reactions were assayed with 1 mg/mL histone H1 in the presence of 0.15 μM ATP, 0.05 μCi [γ-^33P]ATP and of the test compound in a final volume of 10 μL, all in a reaction buffer (60 mM HEPES-NaOH, pH 7.5, 3 mM MgCl2, 3 mM MnCl2, 3 μM Na-orthovanadate, 1.2 mM DTT, 2.5 μg/50 μl PEG20.000).
as §3

[3] = tested on: PANC-1 (pancreatic carcinoma); assay: MTT cytotoxicity assay, solid cancer cell line PANC-1; format: cell-based; conditions: Homo sapiens, PANC-1, 72 h, three days
In short: as §2

[4] = tested on: breast carcinoma cell line MCF7; assay: Cell cycle profile by BrdU/propidium iodide flow cytometry; format: cell-based; conditions: asynchronously growing MCF7, 24 h, FIG. 1
Procedure: Sub-confluent cells were treated with test compounds at different concentrations for 24 h. The cultures were pulse-labeled with […] 5-bromo-20-deoxyuridine (BrdU) for 30 min at 37° C. prior to harvesting. The cells were then washed in PBS, fixed with 70% ethanol, and denatured in 2 M HCl. Following neutralization, the cells were stained with anti-BrdU fluorescein-labeled antibodies, washed, stained with propidium iodide and analyzed by flow cytometry using a 488 nm laser

[5] = tested on: MCF7 (breast adenocarcinoma); assay: MTT cytotoxicity assay, solid cancer cell line MCF7; format: cell-based; conditions: Homo sapiens, MCF7, 72 h, three days
In short: as §2

[6] = tested on: PLC/PRF/5 (liver hepatoma); assay: MTT cytotoxicity assay, solid cancer cell line PLC/PRF/5; format: cell-based; conditions: Homo sapiens, PLC-PRF-5, 72 h, three days
In short: as §2

T1 sequence (Q00535 whole entry): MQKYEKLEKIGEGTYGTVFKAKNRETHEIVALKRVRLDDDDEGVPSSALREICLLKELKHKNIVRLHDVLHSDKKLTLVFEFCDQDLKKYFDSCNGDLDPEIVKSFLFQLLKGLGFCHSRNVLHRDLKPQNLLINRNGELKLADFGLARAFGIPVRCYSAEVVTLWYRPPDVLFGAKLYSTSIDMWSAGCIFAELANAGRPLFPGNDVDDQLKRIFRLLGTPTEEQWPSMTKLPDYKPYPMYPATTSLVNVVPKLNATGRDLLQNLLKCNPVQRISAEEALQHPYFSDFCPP
T1 sequence (Q15078 whole entry partner): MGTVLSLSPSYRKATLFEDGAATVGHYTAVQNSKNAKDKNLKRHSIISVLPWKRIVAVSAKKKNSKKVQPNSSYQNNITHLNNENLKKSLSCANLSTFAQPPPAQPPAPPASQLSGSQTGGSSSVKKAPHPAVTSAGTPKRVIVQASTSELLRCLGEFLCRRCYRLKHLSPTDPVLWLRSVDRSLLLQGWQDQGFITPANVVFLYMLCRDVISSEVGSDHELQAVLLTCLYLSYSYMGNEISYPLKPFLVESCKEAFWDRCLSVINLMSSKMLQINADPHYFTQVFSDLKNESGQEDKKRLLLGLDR

IC50 (CDK5/p35): 0.017 µM | IC50 (CDK2/Cyclin E): 0.051 µM
Compound: CC(C)c1[nH]nc2c(NCc3ccc(-c4ccccn4)cc3)nc(NCC(O)CN)nc12 (stereo not shown) [Compound 45]
EC50 [1]: 500 nM | level of anti-apoptotic protein Mcl-1 (immunoblot) (Mcl-1): dose-dependent decrease | expression of Mdm-2 (immunoblot) (Mdm-2): decreased expression | IC50 [2]: 0.22 µM | IC50 [3]: 0.32 µM | effect on the cell cycle of MCF7 [4]: potently arrested cells in S, G2 and M phases | IC50 [5]: 0.31 µM | IC50 [6]: 0.2 µM

From US9957273B2, “5-substituted 7- [4-(2-pyridyl)phenylmethylamino] -3-isopropylpyrazolo4,3-D]pyrimidine derivatives, use thereof as medicaments, and pharmaceutical compositions” (USTAV EXPERIMENTALNI BOTANIKY AV CR, V.V.I., priority 2015, dated 2018)
